What was measured:
[1] = test system: Spontaneously hypertensive rats (SHR); experiment: Acute Efficacy in Spontaneously Hypertensive Rats (SHR), telemetry blood pressure; assay type: in vivo, rat; conditions: single oral gavage
Excerpt: Spontaneously hypertensive rats (SHR, male, Charles River) were implanted with DSI TA11PA-C40 telemetry device (Data Sciences, Inc., St. Paul, Minn.) under isoflurane or ketamine/metomidine anesthesia. The telemetry unit catheter was inserted into the descending aorta via the femoral artery and the telemetry device was implanted subcutaneously in the left flank area. Animals were allowed to recover from surgery for 14 days before the start of any studies. Blood pressure, heart rate, and activity signals from conscious, freely moving rats were recorded continuously for 30 seconds every 10 minutes. On the day prior to administration of compound, a single oral dose of vehicle (10% transcutol/20% Cremophor/70% water) was administered to all animals to establish baseline control data. The blood pressure lowering efficacy of compound (PO) or vehicle was evaluated following a single oral gavage. Data were collected as hourly averages, and changes in blood pressure were calculated by subtracting control baseline data on an hourly basis. Animals were maintained on normal diet with a 12 hour light-dark cycle.
Maximum peak decreases of systolic blood pressure (SBP) in SHR at a particular P.O. dose (mpk milligrams per kilogram) for the following representative compounds are provided. Category A=SBP in SHRs <20 mmHg; Category B=SBP in SHRs 20-40 mmHg; Category C=SBP in SHRs >40 mmHg.

[2] = target: T1, sGC α1/β1 heterodimer (Homo sapiens, UniProt Q02108+Q02153); experiment: Cell-Based sGC Functional Assay (CASA Assay), cGMP generation in CHO-K1/sGC cells;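 also: reference Compound A is a published heme-dependent sGC activator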; conditions: maximum cGMP production of Compound A set to 100% activation, read-out: % Act. (percent activation relative to Compound A)
T1 construct: expressed in transfected cells
T1 sequence (Q02108 1-690): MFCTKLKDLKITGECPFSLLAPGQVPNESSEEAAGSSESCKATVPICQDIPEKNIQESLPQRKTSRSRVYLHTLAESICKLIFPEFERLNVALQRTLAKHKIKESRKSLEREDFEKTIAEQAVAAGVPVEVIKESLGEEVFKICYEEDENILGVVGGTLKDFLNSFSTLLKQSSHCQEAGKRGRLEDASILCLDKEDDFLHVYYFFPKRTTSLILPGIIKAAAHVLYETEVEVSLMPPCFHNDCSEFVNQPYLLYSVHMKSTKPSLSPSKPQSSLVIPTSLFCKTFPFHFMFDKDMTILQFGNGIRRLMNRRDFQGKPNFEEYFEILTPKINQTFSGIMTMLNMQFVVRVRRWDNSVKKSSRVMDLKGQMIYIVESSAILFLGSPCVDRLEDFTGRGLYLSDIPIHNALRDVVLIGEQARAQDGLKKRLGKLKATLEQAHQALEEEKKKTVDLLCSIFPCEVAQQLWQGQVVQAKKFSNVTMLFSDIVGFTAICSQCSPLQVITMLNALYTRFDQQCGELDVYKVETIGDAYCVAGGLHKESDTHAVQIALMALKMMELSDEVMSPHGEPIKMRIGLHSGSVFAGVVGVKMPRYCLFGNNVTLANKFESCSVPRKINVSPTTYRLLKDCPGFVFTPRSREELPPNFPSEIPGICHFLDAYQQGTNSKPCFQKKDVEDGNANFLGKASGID
T1 sequence (Q02153 1-619): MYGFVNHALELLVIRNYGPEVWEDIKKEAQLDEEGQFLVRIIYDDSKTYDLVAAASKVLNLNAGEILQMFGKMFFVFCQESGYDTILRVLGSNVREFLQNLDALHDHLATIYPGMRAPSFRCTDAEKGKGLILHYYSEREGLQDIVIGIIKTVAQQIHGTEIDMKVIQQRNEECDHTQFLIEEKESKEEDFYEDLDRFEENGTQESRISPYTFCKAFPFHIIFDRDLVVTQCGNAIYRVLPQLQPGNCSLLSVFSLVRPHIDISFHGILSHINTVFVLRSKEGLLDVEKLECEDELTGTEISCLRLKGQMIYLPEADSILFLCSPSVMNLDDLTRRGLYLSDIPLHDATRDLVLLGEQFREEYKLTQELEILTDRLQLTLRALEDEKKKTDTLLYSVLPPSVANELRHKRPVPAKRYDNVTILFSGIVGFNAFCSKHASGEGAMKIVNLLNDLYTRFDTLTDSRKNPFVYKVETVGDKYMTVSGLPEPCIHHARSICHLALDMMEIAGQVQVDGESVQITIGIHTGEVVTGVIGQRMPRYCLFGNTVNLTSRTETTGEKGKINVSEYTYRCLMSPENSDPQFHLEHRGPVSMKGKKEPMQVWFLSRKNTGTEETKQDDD
Method in brief: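 CHO-K1 cells stably expressing human sGC α1/β1, 4×10^5/mL in EBSS with 5 mM MgCl2, 10 mM HEPES, 0.05% BSA, 0.5 mM IBMX, 2.5% DMSO; compounds 1 h at 37 °C ± 1 μM DETA-NO. cGMP by HTRF, expressed as % of reference Compound A maximum; IP and max fold induction from 4P fit.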

Emax [2] [%] | Structure (SMILES) | Maximum peak decrease of systolic blood pressure (SBP) in SHR, Cat. ([1]; P.O. 0.3 mpk) | Maximum peak decrease of systolic blood pressure (SBP) in SHR, Cat. ([1]; P.O. 1 mpk)
119 | Cc1ccc(C2(C3CC3)C(=O)Nc3nc(-c4cn5ncnc5c(CCC(F)(F)C(F)(F)F)n4)nc(N)c32)nc1 (racemic) [Example 17B, 4-amino-5-cyclopropyl-5-(5-methylpyridin-2-yl)-2-(8-(3,3,4,4,4-pentafluorobutyl)-[1,2,4]triazolo[1,5-a]pyrazin-6-yl)-5H-pyrrolo[2,3-d]pyrimidin-6(7H)-one] | A (Category A=SBP in SHRs <20 mmHg) | –
120 | Nc1nc(-c2cn3ncnc3c(CCCC(F)(F)F)n2)nc2c1C(c1ccc(C(F)F)cn1)(C1CC1)C(=O)N2 (racemic) [Example 44B, 4-amino-5-cyclopropyl-5-(5-(difluoromethyl)pyridin-2-yl)-2-(8-(4,4,4-trifluorobutyl)-[1,2,4]triazolo[1,5-a]pyrazin-6-yl)-5H-pyrrolo[2,3-d]pyrimidin-6(7H)-one] | – | B (Category B=SBP in SHRs 20-40 mmHg)
111 | Nc1nc(-c2cn3ncnc3c(CCCC(F)(F)F)n2)nc2c1C(c1ccc(C(F)(F)F)cn1)(C1CC1)C(=O)N2 (single isomer, unassigned) [Example 2A, 4-Amino-5-cyclopropyl-2-(8-(4,4,4-trifluorobutyl)-[1,2,4]triazolo[1,5-a]pyrazin-6-yl)-5-(5-(trifluoromethyl)pyridin-2-yl)-5H-pyrrolo[2,3-d]pyrimidin-6(7H)-one] | A (Category A=SBP in SHRs <20 mmHg) | –
196 | C[C@@]1(c2ccc(F)cc2)C(=O)Nc2nc(-c3cn4ncnc4c(CCC(F)(F)C(F)(F)F)n3)nc(N)c21 [Example 1A, (S)-4-Amino-5-(4-fluorophenyl)-5-methyl-2-(8-(3,3,4,4,4-pentafluorobutyl)-[1,2,4]triazolo[1,5-a]pyrazin-6-yl)-5H-pyrrolo[2,3-d]pyrimidin-6(7H)-one] | C (Category C=SBP in SHRs >40 mmHg) | –
95 | CCCCc1nc(-c2nc(O)c3c(n2)NC(=O)C3(C)c2ccc(C)cn2)cn2ncnc12 (stereo not drawn) [Example 161B, 2-(8-butyl-[1,2,4]triazolo[1,5-a]pyrazin-6-yl)-4-hydroxy-5-methyl-5-(5-methylpyridin-2-yl)-5H-pyrrolo[2,3-d]pyrimidin-6(7H)-one] | – | –
100 | C[C@@]1(c2ccc(F)cc2)C(=O)Nc2nc(-c3cn4ncnc4c(Cc4ccc(F)cc4)n3)nc(O)c21 [Example 162B, (S)-2-(8-(4-fluorobenzyl)-[1,2,4]triazolo[1,5-a]pyrazin-6-yl)-5-(4-fluorophenyl)-4-hydroxy-5-methyl-5H-pyrrolo[2,3-d]pyrimidin-6(7H)-one] | – | –
109 | CC(C)Cc1nc(-c2nc(O)c3c(n2)NC(=O)[C@@]3(C)c2ccc(F)cc2)cn2ncnc12 [Example 163A, (S)-5-(4-fluorophenyl)-4-hydroxy-2-(8-isobutyl-[1,2,4]triazolo[1,5-a]pyrazin-6-yl)-5-methyl-5,7-dihydro-6H-pyrrolo[2,3-d]pyrimidin-6-one] | – | –
70 | CCCc1nc(-c2nc(O)c3c(n2)NC(=O)C3(c2ccc(F)c(F)c2)C2CC2)cn2ncnc12 (stereo not drawn) [Example 167A, 5-cyclopropyl-5-(3,4-difluorophenyl)-4-hydroxy-2-(8-propyl-[1,2,4]triazolo[1,5-a]pyrazin-6-yl)-5H-pyrrolo[2,3-d]pyrimidin-6(7H)-one] | – | –
77 | CCCc1nc(-c2nc(O)c3c(n2)NC(=O)C3(C)c2ccc(Cl)cc2)cn2nc(C)nc12 (stereo not drawn) [Example 168A, 5-(4-chlorophenyl)-4-hydroxy-5-methyl-2-(2-methyl-8-propyl-[1,2,4]triazolo[1,5-a]pyrazin-6-yl)-5H-pyrrolo[2,3-d]pyrimidin-6(7H)-one] | – | –
116 | CC1(c2ccc(F)c(F)c2)C(=O)Nc2nc(-c3cn4ncnc4c(CCC(F)(F)C(F)(F)F)n3)nc(O)c21 (stereo not drawn) [Example 169B, 5-(3,4-Difluorophenyl)-4-hydroxy-5-methyl-2-(8-(3,3,4,4,4-pentafluorobutyl)-[1,2,4]triazolo[1,5-a]pyrazin-6-yl)-5,7-dihydro-6H-pyrrolo[2,3-d]pyrimidin-6-one] | – | –
125 | CC1(c2ccccc2F)C(=O)Nc2nc(-c3cn4ncnc4c(CCC(F)(F)C(F)(F)F)n3)nc(O)c21 (stereo not drawn) [Example 170A, 5-(2-Fluorophenyl)-4-hydroxy-5-methyl-2-(8-(3,3,4,4,4-pentafluorobutyl)-[1,2,4]triazolo[1,5-a]pyrazin-6-yl)-5,7-dihydro-6H-pyrrolo[2,3-d]pyrimidin-6-one] | – | –
90 | CCCCc1nc(-c2nc(O)c3c(n2)NC(=O)C3(C)c2cccc(F)c2)cn2ncnc12 (stereo not drawn) [Example 171A, 2-(8-Butyl-[1,2,4]triazolo[1,5-a]pyrazin-6-yl)-5-(3-fluorophenyl)-4-hydroxy-5-methyl-5,7-dihydro-6H-pyrrolo[2,3-d]pyrimidin-6-one] | – | –
122 | C[C@@]1(c2ccc(F)cc2)C(=O)Nc2nc(-c3cn4ncnc4c(CCC(F)(F)C(F)(F)F)n3)ncc21 [Example 172A, (S)-5-(4-fluorophenyl)-5-methyl-2-(8-(3,3,4,4,4-pentafluorobutyl)-[1,2,4]triazolo[1,5-a]pyrazin-6-yl)-5,7-dihydro-6H-pyrrolo[2,3-d]pyrimidin-6-one] | – | –
133 | C[C@@]1(c2ccc(F)cc2)C(=O)Nc2nc(-c3cn4ncnc4c(CCC(F)(F)F)n3)ncc21 [Example 174A, (S)-5-(4-fluorophenyl)-5-methyl-2-(8-(3,3,3-trifluoropropyl)-[1,2,4]triazolo[1,5-a]pyrazin-6-yl)-5,7-dihydro-6H-pyrrolo[2,3-d]pyrimidin-6-one] | – | –
115 | CC1(c2ccc(Cl)cn2)C(=O)Nc2nc(-c3cn4ncnc4c(CCC(F)(F)C(F)(F)F)n3)ncc21 (stereo not drawn) [Example 175A, 5-(5-chloropyridin-2-yl)-5-methyl-2-(8-(3,3,4,4,4-pentafluorobutyl)-[1,2,4]triazolo[1,5-a]pyrazin-6-yl)-5H-pyrrolo[2,3-d]pyrimidin-6(7H)-one] | – | –
166 | CC1(c2ccc(F)cn2)C(=O)Nc2nc(-c3cn4ncnc4c(CCCC(F)(F)F)n3)ncc21 (stereo not drawn) [Example 176B, 5-(5-fluoropyridin-2-yl)-5-methyl-2-(8-(4,4,4-trifluorobutyl)-[1,2,4]triazolo[1,5-a]pyrazin-6-yl)-5H-pyrrolo[2,3-d]pyrimidin-6(7H)-one] | – | –
55 | CC1(c2ccc(C(F)F)cn2)C(=O)Nc2nc(-c3cn4ncnc4c(CCCC(F)(F)F)n3)nc(O)c21 (stereo not drawn) [Example 181B, 4-hydroxy-5-(5-(difluoromethyl)pyridin-2-yl)-5-methyl-2-(8-(4,4,4-trifluorobutyl)-[1,2,4]triazolo[1,5-a]pyrazin-6-yl)-5H-pyrrolo[2,3-d]pyrimidin-6(7H)-one] | – | –

From US10925876B2, “Methods for using triazolo-pyrazinyl soluble guanylate cyclase activators in fibrotic disorders” (Merck Sharp & Dohme Corp., priority 2016, dated 2021)
